The source of these data is US8580811B2 (Ligand Pharmaceuticals Incorporated, priority 2005, dated 2013).

In one test the target is T1, human AR (Homo sapiens, UniProt P10275).
T1 construct: expressed in transfected cells; host or cells: COS-1 cells
T1 sequence (P10275 1-920): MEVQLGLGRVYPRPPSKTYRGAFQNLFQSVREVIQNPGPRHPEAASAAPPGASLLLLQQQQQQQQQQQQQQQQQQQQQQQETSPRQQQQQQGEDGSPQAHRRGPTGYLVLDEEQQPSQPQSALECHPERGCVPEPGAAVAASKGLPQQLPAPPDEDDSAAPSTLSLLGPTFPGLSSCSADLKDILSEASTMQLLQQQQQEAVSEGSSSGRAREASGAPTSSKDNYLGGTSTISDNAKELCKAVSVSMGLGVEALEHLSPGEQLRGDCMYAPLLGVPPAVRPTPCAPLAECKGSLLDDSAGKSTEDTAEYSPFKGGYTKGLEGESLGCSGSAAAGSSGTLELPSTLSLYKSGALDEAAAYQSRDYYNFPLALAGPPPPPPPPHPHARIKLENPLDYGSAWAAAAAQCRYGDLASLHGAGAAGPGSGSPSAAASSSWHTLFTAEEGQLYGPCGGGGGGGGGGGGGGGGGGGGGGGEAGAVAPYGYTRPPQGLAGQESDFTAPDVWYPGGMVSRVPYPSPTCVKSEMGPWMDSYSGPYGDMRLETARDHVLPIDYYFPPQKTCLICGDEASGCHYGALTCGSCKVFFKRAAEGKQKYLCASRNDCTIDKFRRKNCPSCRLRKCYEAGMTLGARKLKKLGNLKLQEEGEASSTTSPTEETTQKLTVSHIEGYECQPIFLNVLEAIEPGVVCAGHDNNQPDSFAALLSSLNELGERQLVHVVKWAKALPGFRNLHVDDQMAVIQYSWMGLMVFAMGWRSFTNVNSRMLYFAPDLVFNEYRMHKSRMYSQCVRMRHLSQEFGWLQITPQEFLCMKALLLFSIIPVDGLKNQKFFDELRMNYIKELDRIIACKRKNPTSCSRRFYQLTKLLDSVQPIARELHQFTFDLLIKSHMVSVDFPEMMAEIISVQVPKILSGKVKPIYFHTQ
The test can be described thus: IR Binding Assay: whole cell competitive binding of test compounds against 3H-DHT in COS-1 cells transfected with pRShAR.
Conditions: not given
Put shortly:
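COS-1 cells transfected with pRShAR plus β-Gal reporter, serum-starved 24 h, then exposed to 1 nM ³H-DHT with compounds at 10^−10 to 10^−6 M for 3 h at 37 °C. Bound ³H-DHT counted in lysates, normalized to β-Gal. IC50 from log-logit plot; Ki via Cheng-Prusoff using Kd from Scatchard saturation analysis.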
Consider `Cc1c(-c2cccc(C(F)(F)F)c2)n(CC(F)(F)F)c2ccc3[nH]c(=O)cc(Cl)c3c12` [Compound 201, 9-Chloro-1-methyl-2-(3-trifluoromethylphenyl)-3-(2,2,2-trifluoroethyl)-3,6-dihydro-pyrrolo[3,2-f]-quinolin-7-one], for which the Ki (in general, a dissociation constant, usually derived from enzyme kinetics or from competition with a known ligand) is greater than 10 nM.
Same read-out and setting: the same measure for `Cc1c(-c2ccc(C(F)(F)F)cc2)n(CC(F)(F)F)c2ccc3[nH]c(=O)cc(Cl)c3c12` [Compound 202, 9-Chloro-1-methyl-2-(4-trifluoromethylphenyl)-3-(2,2,2-trifluoroethyl)-3,6-dihydro-pyrrolo[3,2-f]-quinolin-7-one]: greater than 10 nM; for `CCc1c(-c2ccccc2)n(CC(F)(F)F)c2ccc3[nH]c(=O)cc(Cl)c3c12` [Compound 203, 9-Chloro-1-ethyl-2-phenyl-3-(2,2,2-trifluoroethyl)-3,6-dihydro-pyrrolo[3,2-f]quinolin-7-one]: less than 5 nM; for `Cc1ccc(-c2c(C)c3c4c(Cl)cc(=O)[nH]c4ccc3n2CC(F)(F)F)cc1` [Compound 204, 9-Chloro-1-methyl-2-(4-methylphenyl)-3-(2,2,2-trifluoroethyl)-3,6-dihydro-pyrrolo[3,2-f]-quinolin-7-one]: less than 5 nM.
In the case of `Cc1c(-c2cccc([N+](=O)[O-])c2)n(CC(F)(F)F)c2ccc3[nH]c(=O)cc(Cl)c3c12` [Compound 205, 9-Chloro-1-methyl-2-(3-nitrophenyl)-3-(2,2,2-trifluoroethyl)-3,6-dihydro-pyrrolo[3,2-f]quinolin-7-one], the inhibitory constant (Ki) lay in the range of 5 to 10 nM.
`Cc1c(-c2cccs2)n(CC(F)(F)F)c2ccc3[nH]c(=O)cc(Cl)c3c12` [Compound 207, 9-Chloro-1-methyl-2-thien-2-yl-3-(2,2,2-trifluoroethyl)-3,6-dihydro-pyrrolo[3,2-f]quinolin-7-one] returned a Ki of less than 5 nM.
Take `Cc1c(C)n(C)c2ccc3[nH]c(=O)cc(Cl)c3c12` [Compound 208, 9-Chloro-1,2,3-trimethyl-3,6-dihydro-pyrrolo[3,2-f]quinolin-7-one]: the inhibition constant Ki lay in the range of 5 to 10 nM.
Turning to `CCc1c(-c2cccs2)n(CC(F)(F)F)c2ccc3[nH]c(=O)cc(Cl)c3c12` [Compound 209, 9-Chloro-1-ethyl-2-thien-2-yl-3-(2,2,2-trifluoroethyl)-3,6-dihydro-pyrrolo[3,2-f]quinolin-7-one], the Ki was less than 5 nM.
`CCCc1c(C)n(CC(F)(F)F)c2ccc3[nH]c(=O)cc(Cl)c3c12` [Compound 210, 9-Chloro-2-methyl-1-propyl-3-(2,2,2-trifluoroethyl)-3,6-dihydro-pyrrolo[3,2-f]quinolin-7-one] gave a Ki of less than 5 nM.
On the same count and under the same terms, to `Cc1cn(CC(F)(F)F)c2ccc3[nH]c(=O)cc(Cl)c3c12` [Compound 211, 9-Chloro-1-methyl-3-(2,2,2-trifluoroethyl)-3,6-dihydro-pyrrolo[3,2-f]quinolin-7-one] belongs 5 to 10 nM; to `Cc1c(C)n(CC(F)(F)Cl)c2ccc3[nH]c(=O)cc(Cl)c3c12` [Compound 212, 9-Chloro-3-(2-chloro-2,2-difluoroethyl)-1,2-dimethyl-3,6-dihydro-pyrrolo[3,2-f]quinolin-7-one], less than 5 nM.
Still for that read-out and setting: to `Cc1c(C)n(CCC(F)(F)F)c2ccc3[nH]c(=O)cc(Cl)c3c12` [Compound 213, 9-Chloro-1,2-dimethyl-3-(3,3,3-trifluoropropyl)-3,6-dihydro-pyrrolo[3,2-f]quinolin-7-one] belongs less than 5 nM; to `Cc1c(C)n(CC(F)(F)C(F)(F)C(F)(F)F)c2ccc3[nH]c(=O)cc(Cl)c3c12` [Compound 214, 9-Chloro-1,2-dimethyl-3-(2,2,3,3,4,4,4-heptafluorobutyl)-3,6-dihydro-pyrrolo[3,2-f]-quinolin-7-one], greater than 10 nM.
Regarding `Cc1c(C)n(CC(F)(F)C(F)(F)F)c2ccc3[nH]c(=O)cc(Cl)c3c12` [Compound 215, 9-Chloro-1,2-dimethyl-3-(2,2,3,3,3-pentafluoropropyl)-3,6-dihydro-pyrrolo[3,2-f]-quinolin-7-one], the Ki is less than 5 nM.
As to `CCc1c(C)c2c3c(Cl)cc(=O)[nH]c3ccc2n1CCC(F)(F)F` [Compound 216, 9-Chloro-2-ethyl-1-methyl-3-(3,3,3-trifluoropropyl)-3,6-dihydro-pyrrolo[3,2-f]quinolin-7-one], the Ki was less than 5 nM.
In turn, `Cc1c(-c2ccccc2)n(CCC(F)(F)F)c2ccc3[nH]c(=O)cc(Cl)c3c12` [Compound 217, 9-Chloro-1-methyl-2-phenyl-3-(3,3,3-trifluoropropyl)-3,6-dihydropyrrolo[3,2-f]-quinolin-7-one] showed a Ki of less than 5 nM.
As to `Cc1c(-c2ccccc2)n(CC(F)(F)C(F)(F)F)c2ccc3[nH]c(=O)cc(Cl)c3c12` [Compound 218, 9-Chloro-1-methyl-3-(2,2,3,3,3-pentafluoropropyl)-2-phenyl-3,6-dihydro-pyrrolo[3,2-f]-quinolin-7-one], the Ki is less than 5 nM.
`Cc1c(C)n(CC(F)(F)C(F)(F)F)c2ccc3[nH]c(=O)cc(C(F)(F)F)c3c12` [Compound 219, 1,2-Dimethyl-3-(2,2,3,3,3-pentafluoropropyl)-9-trifluoromethyl-3,6-dihydro-pyrrolo[3,2-f]-quinolin-7-one] yielded an inhibition constant Ki of less than 5 nM.
For the compound `Cc1c(C)n(CC(F)(F)Cl)c2ccc3[nH]c(=O)cc(C(F)(F)F)c3c12` [Compound 220, 1,2-Dimethyl-3-(2-chloro-2,2-difluoroethyl)-9-trifluoromethyl-3,6-dihydro-pyrrolo[3,2-f]-quinolin-7-one], the Ki was less than 5 nM.
For `Cc1c(C)n(CCC(F)(F)F)c2ccc3[nH]c(=O)cc(C(F)(F)F)c3c12` [Compound 221, 1,2-Dimethyl-9-trifluoromethyl-3-(3,3,3-trifluoropropyl)-3,6-dihydro-pyrrolo[3,2-f]-quinolin-7-one], the Ki was less than 5 nM.
Same read-out and setting: to `CCc1c(C)c2c3c(Cl)cc(=O)[nH]c3ccc2n1CC(F)(F)Cl` [Compound 222, 9-Chloro-3-(2-chloro-2,2-difluoroethyl)-2-ethyl-1-methyl-3,6-dihydro-pyrrolo[3,2-f]-quinolin-7-one] belongs less than 5 nM; to `CCc1c(C)c2c3c(Cl)cc(=O)[nH]c3ccc2n1CC(F)(F)C(F)(F)F` [Compound 223, 9-Chloro-2-ethyl-1-methyl-3-(2,2,3,3,3-pentafluoropropyl)-3,6-dihydro-pyrrolo[3,2-f]-quinolin-7-one], less than 5 nM.
As for `CCc1c(C)c2c3c(C(F)(F)F)cc(=O)[nH]c3ccc2n1CC(F)(F)Cl` [Compound 224, 3-(2-Chloro-2,2-difluoroethyl)-2-ethyl-1-methyl-9-trifluoromethyl-3,6-dihydro-pyrrolo[3,2-f]-quinolin-7-one], the Ki was less than 5 nM.
Same read-out and setting: the same measure for `CCc1c(C)c2c3c(C(F)(F)F)cc(=O)[nH]c3ccc2n1CC(F)(F)C(F)(F)F` [Compound 225, 2-Ethyl-1-methyl-3-(2,2,3,3,3-pentafluoropropyl)-9-trifluoromethyl-3,6-dihydro-pyrrolo[3,2-f]-quinolin-7-one]: less than 5 nM; for `CCc1c(C)c2c3c(C(F)(F)F)cc(=O)[nH]c3ccc2n1CCC(F)(F)F` [Compound 226, 2-Ethyl-1-methyl-9-trifluoromethyl-3-(3,3,3-trifluoropropyl)-3,6-dihydro-pyrrolo[3,2-f]-quinolin-7-one]: less than 5 nM; for `Cc1c(C)n(CCCC(F)(F)F)c2ccc3[nH]c(=O)cc(C(F)(F)F)c3c12` [Compound 227, 1,2-Dimethyl-3-(4,4,4-trifluorobutyl)-9-trifluoromethyl-3,6-dihydro-pyrrolo[3,2-f]-quinolin-7-one]: less than 5 nM.
On the same count and under the same terms, the same measure for `CCc1c(C)c2c3c(C(F)(F)F)cc(=O)[nH]c3ccc2n1CCCC(F)(F)F` [Compound 228, 2-Ethyl-1-methyl-3-(4,4,4-trifluorobutyl)-9-trifluoromethyl-3,6-dihydro-pyrrolo[3,2-f]-quinolin-7-one]: less than 5 nM; for `Cc1c(C(F)(F)F)n(CC(F)(F)F)c2ccc3[nH]c(=O)cc(Cl)c3c12` [Compound 229, 9-Chloro-1-methyl-3-(2,2,2-trifluoro-ethyl)-2-trifluoromethyl-3,6-dihydro-pyrrolo[3,2-f]-quinolin-7-one]: less than 5 nM.

The test is the same for the next values; noted with them: competition with 1 nM 3H-DHT, transfected COS-1 cells, 3 h at 37° C., Cheng-Prusoff from IC50; read-out: Ki.
Take `Cc1c(-c2ccc(Cl)cc2)n(CC(F)(F)F)c2ccc3[nH]c(=O)cc(Cl)c3c12` [Compound 206, 9-Chloro-2(4-chlorophenyl)-1-methyl-3-(2,2,2-trifluoroethyl)-3,6-dihydro-pyrrolo[3,2-f]quinolin-7-one]: the Ki is greater than 10 nM.
